Test results published in ChEMBL document CHEMBL1123242, “Derivatives of 1-(1,3-benzodioxol-5-yl)-2-butanamine: representatives of a novel therapeutic class” (1986).

Columns and labels:
Format in all cases: functional
Rattus norvegicus [1] = experiment: Compound was tested for hallucinogenic activity in rats at the dose 0.17(mg/kg); Number of rats selecting the LSD lever/ number of rats responding (1/8)
Rattus norvegicus [2] = experiment: Compound was tested for hallucinogenic activity in rats at the dose 0.34(mg/kg); Number of rats selecting the LSD lever/ number of rats responding (1/8)
Rattus norvegicus [3] = experiment: Compound was tested for hallucinogenic activity in rats at dose 1.38 (mg/kg); Number of rats selecting the LSD lever/ number of rats responding (3/8)
Rattus norvegicus [4] = experiment: Compound was tested for hallucinogenic activity in rats at the dose 1.38 (mg/kg)
Rattus norvegicus [5] = experiment: Compound was tested for hallucinogenic activity in rats at 2.41 dose(mg/kg); Number of rats selecting the LSD lever/ number of rats responding (8/8)
Rattus norvegicus [6] = experiment: Compound was tested for hallucinogenic activity in rats at 1.72 dose (mg/kg); Number of rats selecting the LSD lever/ number of rats responding (2/8)
Rattus norvegicus [7] = experiment: Compound was tested for hallucinogenic activity in rats at 2.07 dose(mg/kg); Number of rats selecting the LSD lever/ number of rats responding (3/8)
Rattus norvegicus [8] = experiment: Compound was tested for hallucinogenic activity in rats at the dose 0.17 (mg/kg)
Rattus norvegicus [9] = experiment: Compound was tested for hallucinogenic activity in rats at 0.69 dose(mg/kg); Number of rats selecting the LSD lever/ number of rats responding (1/8)
Rattus norvegicus [10] = experiment: Compound was tested for hallucinogenic activity in rats at 15 dose(mg/kg); 0/0, highest dose tested
Rattus norvegicus [11] = experiment: Compound was tested for hallucinogenic activity in rats at 1.95 dose(mg/kg); Number of rats selecting the LSD lever/ number of rats responding (1/7)
Rattus norvegicus [12] = experiment: Compound was tested for hallucinogenic activity in rats at 2.07 dose(mg/kg); 0/0, highest dose tested
Rattus norvegicus [13] = experiment: Compound was tested for hallucinogenic activity in rats at the dose 0.37(mg/kg); Number of rats selecting the LSD lever/ number of rats responding (0/8)
Rattus norvegicus [14] = experiment: Compound was tested for hallucinogenic activity in rats at the dose 0.73(mg/kg); Number of rats selecting the LSD lever/ number of rats responding (0/8)
Rattus norvegicus [15] = experiment: Compound was tested for hallucinogenic activity in rats at 1.84 dose(mg/kg); 2/4, highest dose tested
Rattus norvegicus [16] = experiment: Compound was tested for hallucinogenic activity in rats at 1.38 dose(mg/kg); Number of rats selecting the LSD lever/ number of rats responding (3/8)
Rattus norvegicus [17] = experiment: Compound was tested for hallucinogenic activity in rats at the dose 0.34 (mg/kg); Number of rats selecting the LSD lever/ number of rats responding (0/8)
Rattus norvegicus [18] = experiment: Compound was tested for hallucinogenic activity in rats at the dose 0.69(mg/kg); Number of rats selecting the LSD lever/ number of rats responding (0/8)
Rattus norvegicus [19] = experiment: Compound was tested for hallucinogenic activity in rats at the 0.63 dose(mg/kg); Number of rats selecting the LSDlever/ number of rats responding (2/8)
Rattus norvegicus [20] = experiment: Compound was tested for hallucinogenic activity in rats at 0.32 dose(mg/kg); Number of rats selecting the LSDlever/ number of rats responding (2/8)
Rattus norvegicus [21] = experiment: Compound was tested for hallucinogenic activity in rats at the 1.29 dose(mg/kg); Number of rats selecting the LSDlever/ number of rats responding (7/8)
Rattus norvegicus [22] = experiment: Compound was tested for hallucinogenic activity in rats at the dose 0.16 (mg/kg)
Rattus norvegicus [23] = experiment: Compound was tested for hallucinogenic activity in rats at 0.16 dose(mg/kg); Number of rats selecting the LSDlever/ number of rats responding (1/8)
Rattus norvegicus [24] = experiment: Compound was tested for hallucinogenic activity in rats at 4.14 dose (mg/kg); Number of rats selecting the LSD lever/ number of rats responding (2/8)
Rattus norvegicus [25] = experiment: Compound was tested for hallucinogenic activity in rats at 0.69 dose(mg/kg); Number of rats selecting the LSD lever/ number of rats responding (0/8)
Rattus norvegicus [26] = experiment: Compound was tested for hallucinogenic activity in rats at 2.76 dose(mg/kg); Number of rats selecting the LSD lever/ number of rats responding (4/8)
Rattus norvegicus [27] = experiment: Compound was tested for hallucinogenic activity in rats at the dose 0.34(mg/kg); Number of rats selecting the LSD lever/ number of rats responding (2/8)
Rattus norvegicus [28] = experiment: Compound was tested for hallucinogenic activity in rats at the dose 0.17(mg/kg); Number of rats selecting the LSD lever/ number of rats responding (2/8)
Rattus norvegicus [29] = experiment: Compound was tested for hallucinogenic activity in rats at 5.52 dose(mg/kg); 1/2, highest dose tested
Rattus norvegicus [30] = experiment: Compound was tested for hallucinogenic activity in rats at dose 1.38 (mg/kg); 1/8
Rattus norvegicus [31] = experiment: Compound was tested for hallucinogenic activity in rats at 2.07 dose(mg/kg); Number of rats selecting the LSD lever/ number of rats responding (3/10)
Rattus norvegicus [32] = experiment: Compound was tested for hallucinogenic activity in rats at 2.41 dose(mg/kg); Number of rats selecting the LSD lever/ number of rats responding (3/8)
Rattus norvegicus [33] = experiment: Compound was tested for hallucinogenic activity in rats at 1.72 dose (mg/kg); Number of rats selecting the LSD lever/ number of rats responding (2/9)
Rattus norvegicus [34] = experiment: Compound was tested for hallucinogenic activity in rats at 3.45 dose (mg/kg); Number of rats selecting the LSD lever/ number of rats responding (3/8)
Rattus norvegicus [35] = experiment: Compound was tested for hallucinogenic activity in rats at 3.44 dose (mg/kg); Number of rats selecting the LSD lever/ number of rats responding (4/8)
Rattus norvegicus [36] = experiment: Compound was tested for hallucinogenic activity in rats at 2.41 dose (mg/kg); Number of rats selecting the LSD lever/ number of rats responding (3/8)
Rattus norvegicus [37] = experiment: Compound was tested for hallucinogenic activity in rats at 0.69 dose(mg/kg); Number of rats selecting the LSD lever/ number of rats responding (2/9)
Rattus norvegicus [38] = experiment: Compound was tested for hallucinogenic activity in rats at dose 1.38(mg/kg); Number of rats selecting the LSD lever/ number of rats responding (2/8)
Rattus norvegicus [39] = experiment: Compound was tested for hallucinogenic activity in rats at 4.14 dose (mg/kg); 2/4, highest dose tested
Rattus norvegicus [40] = experiment: Compound was tested for hallucinogenic activity in rats at 2.07dose (mg/kg); Number of rats selecting the LSD lever/ number of rats responding (3/8)
Rattus norvegicus [41] = experiment: Compound was tested for hallucinogenic activity in rats at 2.76 dose (mg/kg); Number of rats selecting the LSD lever/ number of rats responding (3/9)
Rattus norvegicus [42] = experiment: Compound was tested for hallucinogenic activity in rats at the dose 0.34(mg/kg); Number of rats selecting the LSD lever/ number of rats responding (3/8
Rattus norvegicus [43] = experiment: Compound was tested for hallucinogenic activity in rats at 1.72 dose(mg/kg); Number of rats selecting the LSD lever/ number of rats responding (4/8)

SMILES: CC[C@H](N)Cc1ccc2c(c1)OCO2
- Result (Rattus norvegicus [1]): 1
- Result (Rattus norvegicus [2]): 1
- Result (Rattus norvegicus [3]): 3
- ED50 (Rattus norvegicus [4]): 1.38 mg/kg
- Result (Rattus norvegicus [5]): 8
- Result (Rattus norvegicus [6]): 2
- Result (Rattus norvegicus [7]): 3
- ED50 (Rattus norvegicus [8]): 6 µmol/kg
- Result (Rattus norvegicus [9]): 1

SMILES: CC[C@@H](Cc1ccc2c(c1)OCO2)NC
- Result (Rattus norvegicus [10]): 0

SMILES: CCC(Cc1ccc2c(c1)OCO2)NC (racemic)
- Result (Rattus norvegicus [11]): 1
- Result (Rattus norvegicus [12]): 0
- Result (Rattus norvegicus [13]): 0
- Result (Rattus norvegicus [14]): 0

SMILES: CCC(N)Cc1ccc2c(c1)OCO2 (racemic)
- Result (Rattus norvegicus [15]): 2
- Result (Rattus norvegicus [16]): 3
- Result (Rattus norvegicus [17]): 0
- Result (Rattus norvegicus [18]): 0

SMILES: C[C@@H](N)Cc1ccc2c(c1)OCO2
- Result (Rattus norvegicus [19]): 2
- Result (Rattus norvegicus [20]): 2
- Result (Rattus norvegicus [21]): 7
- ED50 (Rattus norvegicus [22]): 2.94 µmol/kg
- Result (Rattus norvegicus [23]): 1

SMILES: CC[C@@H](N)Cc1ccc2c(c1)OCO2
- Result (Rattus norvegicus [24]): 2
- Result (Rattus norvegicus [25]): 0
- Result (Rattus norvegicus [26]): 4
- Result (Rattus norvegicus [27]): 2
- Result (Rattus norvegicus [28]): 2
- Result (Rattus norvegicus [29]): 1
- Result (Rattus norvegicus [30]): 1
- Result (Rattus norvegicus [31]): 3
- Result (Rattus norvegicus [32]): 3
- Result (Rattus norvegicus [33]): 2
- Result (Rattus norvegicus [34]): 3

SMILES: CN[C@H](C)Cc1ccc2c(c1)OCO2
- Result (Rattus norvegicus [1]): 1
- Result (Rattus norvegicus [35]): 4
- Result (Rattus norvegicus [36]): 3
- Result (Rattus norvegicus [37]): 2
- Result (Rattus norvegicus [38]): 2
- Result (Rattus norvegicus [39]): 2
- Result (Rattus norvegicus [40]): 3
- Result (Rattus norvegicus [41]): 3
- Result (Rattus norvegicus [42]): 3
- Result (Rattus norvegicus [43]): 4
